Measurements from patent US7094752B2 (Chiron Corporation, priority 1997, dated 2006).
Like-named read-outs stand apart in the source and are kept apart here. Marks after values point to notes of the source that are not given here. Square brackets hold non-standard residues; d marks the D form. Peptide text beside a SMILES is read from it. 1Nal = N[C@@H](Cc1cccc2ccccc12)C(=O)O; 2Nal = N[C@@H](Cc1ccc2ccccc2c1)C(=O)O; Nle = CCCC[C@H](N)C(=O)O; Abu = CC[C@H](N)C(=O)O

Experiments:
[1] = biological target: T1, soluble uPAR (Homo sapiens, UniProt Q03405); assay type: binding; parameters: sUPAR, soluble truncated form of the urokinase receptor; made in house; host or cells: baculovirus-infected Sf9 insect cells; details: for % Inhibition 2.5 uM: 2500.0; for % Inhibition 5 uM: 5000.0
T1 sequence (Q03405 23-305 limits assumed): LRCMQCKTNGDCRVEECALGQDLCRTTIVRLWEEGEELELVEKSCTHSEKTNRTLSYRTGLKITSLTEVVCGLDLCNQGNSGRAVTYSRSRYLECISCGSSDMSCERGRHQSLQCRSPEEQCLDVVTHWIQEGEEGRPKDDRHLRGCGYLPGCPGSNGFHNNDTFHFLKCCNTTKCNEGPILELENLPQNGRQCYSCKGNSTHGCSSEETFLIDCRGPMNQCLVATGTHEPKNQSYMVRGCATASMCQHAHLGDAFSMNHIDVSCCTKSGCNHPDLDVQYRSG
Method: Streptavidin, 100 μl (0.1 mg/ml) in 50 mM Na2CO3, pH 9.6, was added to MaxiSorp wells (Nunc), incubated overnight at 4 C, and then washed with PBS/BSA. Biotinylated sUPAR (25 nM in PBS/BSA) was added to the wells and incubated for 2 hours at room temperature prior to washing. Competitive peptide inhibitors were added to the wells immediately prior to addition of the bacteriophage. The wells were incubated for one hour at room temperature, then washed and bound bacteriophage eluted with 6M urea in 0.1N HCl, pH 2.5. After 15 minutes, the urea eluate was brought to neutral pH by addition of 2M Tris base and the bacteriophage titers of input stocks and elutions measured by plaque formation assay. Results were expressed as the percent of input bacteriophage which bind to the wells. Alternatively, the amount of bacteriophage was determined in an ELISA where phage were preincubated with HRP-conjugated anti-M13 antibody for 30 minutes at room temperature before dispensing into wells prepared as above and incubated for one hour at room temperature. The final anti-M13 conjugate dilution was 1:4000. After washing, TMB substrate (100 μl/well) was added and color development was stopped with 0.8N H2SO4 (100 μl/well). The absorbance at 450 nm was then measured in a 96 well plate reader.
In a uPAR binding assay, the following analogs were tested in a competition with phage displaying either peptide 25 or peptide 9. The analogs comprise both natural and unnatural amino acids.
The analogs were tested in an assay utilizing soluble uPAR, similar to the method described in Example 2. The analogs were tested for their ability to compete with phage displaying either peptide 9 or peptide 25. Analogs 3–61 were tested in competition with peptide 25. Analogs 62–96 were tested in competition with peptide 9. Approximately 10^8 plaque forming units of the phage were used in the assay.
The analogs were tested at a concentration at 40 μM in the uPAR competition assay with phage displaying peptide 25. The results below show which analogs were active.
Analogs 31–61 were tested for their ability to compete with phage displaying peptide 25. The active analogs were tested further at two concentrations, 5 μM and 2.5 μM. These concentrations were calculated based on the synthesis reactions. However, the sequences * were further tested and determined to contain high amounts of amino acids and the quantity tested could have been higher than 5 μM or 2.5 μM.

[2] = biological target: T2, uPA1–48:uPAR complexes binding to vitronectin (Homo sapiens, UniProt Q03405); assay: Vitronectin binding assay (ELISA); details: 20 nM biotinylated suPAR, 20 nM uPA1–48
T2 construct: sUPAR, soluble truncated form of the urokinase receptor; made in house; host or cells: suPAR: baculovirus-infected Sf9 cells; uPA1-48: recombinant yeast; vitronectin: purified from human plasma
T2 sequence (Q03405 23-305 limits assumed, one chain of several): as the sequence (Q03405 23-305 limits assumed) above
Method: Vitronectin was purified from human plasma by the method of Yatohgo et al, Cello Struct.and Funct. 13: 281–292 (1988). Purified vitronectin was diluted to 20 μg/ml in PBS containing 1 mM CaCl2 and 0.5 mM MgCl2, dispensed at 50 μl/well into Immulon II wells (Dynatech, Chantilly, Va.), incubated overnight at 4° C. and washed with PBS/BSA. Biotinylated sUPAR was diluted to 20 nM in PBS/BSA, incubated with or without test ligand for 30 minutes at room temperature (22° C.), dispensed at 100 μl/well and incubated for 90 minutes. Wells were then washed and horseradish peroxidase (HRP)-conjugated streptavidin was added at 0.4 μg/ml in PBS/2% BSA for 1 hour followed by washing and addition of 100 μl/well TMB substrate. The color development was stopped with 100 μl of 0.8N H2SO4 and the absorbance at 450 nm measured in a 96 well plate reader (Dynatech, Chantilly, Va.). Antagonistic effects of test ligands were measured as described above except the ligands were incubated with 20 nM biotinylated suPAR in the presence of 20 nM uPA1–48.
In order to analyze the effects of the various peptide ligands on the uPAR:vitronectin interaction, we developed an in vitro ELISA based assay for this interaction, in which biotinylated suPAR and uPA1–48 bind to immobilized, urea purified vitronectin, and the bound sUPAR is detected with HRP conjugated streptavidin. Under the conditions of the assay binding of biotinylated uPAR to vitronectin is strictly dependent on uPA1–48, as shown in FIG. 1.

[3] = biological target: T1, soluble uPAR
Method: The analogs were tested for their ability to compete with phage displaying either peptide 9 or peptide 25. […] Approximately 10^8 plaque forming units of the phage were used in the assay.

[4] = biological target: T3, sUPAR domain 2–3 (D23) (Homo sapiens, UniProt Q03405); assay: Bacteriophage binding to sUPAR domain 2/3; details: phage-displayed peptide
T3 construct: domains 2 and 3 (amino acids 93–313); made in house; host or cells: baculovirus infected Sf9 insect cells
T3 sequence (Q03405 115-335): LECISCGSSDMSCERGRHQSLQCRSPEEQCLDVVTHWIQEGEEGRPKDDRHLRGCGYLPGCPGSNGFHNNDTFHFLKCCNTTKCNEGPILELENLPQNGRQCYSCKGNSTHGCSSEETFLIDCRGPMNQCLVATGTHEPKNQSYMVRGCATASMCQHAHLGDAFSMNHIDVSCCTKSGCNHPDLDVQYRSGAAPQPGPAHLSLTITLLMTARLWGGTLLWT
Method: FIG. 5. Bacteriophage binding to sUPAR domain 2/3. Phage were added to wells containing sUPAR domain 2/3 immobilized by its epitope tag via protein G and monoclonal antibody to the epitope tag. Wells containing protein G and antibody but no domain 2/3 were included to determine nonspecific phage binding. Urea-eluted phage and the input stocks were titered by plaque formation assay. Results were single point determinations calculated as a percent of the input titer and were repeated in three separate experiments.
It was also shown by the inventors that bacteriophage bound to sUPAR domain 2–3fragment. Protein G, 100μl, 1 mg/ml in 50 mM Na2CO3, pH9.6, was added to MaxiSorp wells, incubated overnight at 4° C. and then washed with PBS/BSA. Fifty μl of monoclonal antibody to the epitope tag EYMPME (SEQ ID NO: 18) was added at 1 mg/ml in PBS/BSA and incubated for 2 hours at room temperature. The wells were washed, recombinant sUPAR domain 2–3 (1.7 μM in PBS/BSA) was added and incubated for 1.5 hours at room temperature. The wells were washed prior to the addition of bacteriophage (approximately 10^8 pfu), and then treated as described in the previous section for binding to suPAR.

Molecule	% Inhibition 2.5 uM [1]	% Inhibition 5 uM [1] [%]	other results
CCCC[C@H](NC(=O)[C@H](Cc1ccc(O)cc1)NC(=O)CNC(=O)[C@H](CC(C)C)NC(=O)[C@H](CO)NC(=O)[C@H](CC(C)C)NC(=O)[C@H](Cc1c[nH]cn1)NC(=O)[C@H](Cc1c[nH]cn1)NC(=O)[C@H](Cc1ccc(O)cc1)NC(=O)[C@@H](NC(=O)[C@H](CO)NC(=O)[C@H](CCC(=O)O)NC(=O)[C@H](C)N)[C@@H](C)O)C(=O)N[C@@H](Cc1ccc(O)cc1)C(=O)N[C@H](C(=O)N[C@@H](CC(C)C)C(=O)N[C@@H](CC(N)=O)C(N)=O)[C@@H](C)O [Analog 44, AESTYHHLSLGYJYTLN] (H-AESTYHHLSLGY[Nle]YTLN-NH2)	84* %	91	–
H-AESTYHHLSLGYVYTLN-NH2 [Analog 43]	63%	82	–
CSCC[C@H](NC(=O)[C@H](Cc1ccc(O)cc1)NC(=O)CNC(=O)[C@H](CC(C)C)NC(=O)[C@H](CO)NC(=O)[C@H](CC(C)C)NC(=O)[C@H](Cc1c[nH]cn1)NC(=O)[C@H](Cc1c[nH]cn1)NC(=O)[C@H](Cc1ccc2ccccc2c1)NC(=O)[C@@H](NC(=O)[C@H](CO)NC(=O)[C@H](CCC(=O)O)NC(=O)[C@H](C)N)[C@@H](C)O)C(=O)N[C@@H](Cc1ccc(O)cc1)C(=O)N[C@H](C(=O)N[C@@H](CC(C)C)C(=O)N[C@@H](CC(N)=O)C(N)=O)[C@@H](C)O [Analog 36] (H-AEST[2Nal]HHLSLGYMYTLN-NH2)	61%	78	–
CSCC[C@H](NC(=O)[C@H](Cc1ccc(O)cc1)NC(=O)CNC(=O)[C@H](CC(C)C)NC(=O)[C@H](CO)NC(=O)[C@H](CC(C)C)NC(=O)[C@H](Cc1c[nH]cn1)NC(=O)[C@H](Cc1c[nH]cn1)NC(=O)[C@H](Cc1ccc(O)cc1)NC(=O)[C@@H](NC(=O)[C@H](CO)NC(=O)[C@H](CCC(=O)O)NC(=O)[C@H](C)N)[C@@H](C)O)C(=O)N[C@@H](Cc1ccc(O)cc1)C(=O)N[C@H](C(=O)N[C@H](CC(C)C)C(=O)N[C@@H](CC(N)=O)C(N)=O)[C@@H](C)O [Analog 60] (H-AESTYHHLSLGYMYT[dL]N-NH2)	22%	75	–
CC[C@H](NC(=O)[C@H](Cc1ccc(O)cc1)NC(=O)CNC(=O)[C@H](CC(C)C)NC(=O)[C@H](CO)NC(=O)[C@H](CC(C)C)NC(=O)[C@H](Cc1c[nH]cn1)NC(=O)[C@H](Cc1c[nH]cn1)NC(=O)[C@H](Cc1ccc(O)cc1)NC(=O)[C@@H](NC(=O)[C@H](CO)NC(=O)[C@H](CCC(=O)O)NC(=O)[C@H](C)N)[C@@H](C)O)C(=O)N[C@@H](Cc1ccc(O)cc1)C(=O)N[C@H](C(=O)N[C@@H](CC(C)C)C(=O)N[C@@H](CC(N)=O)C(N)=O)[C@@H](C)O [Analog 45] (H-AESTYHHLSLGY[Abu]YTLN-NH2)	31%	59	–
somatomedin B domain of vitronectin: recombinant somatomedin B domain of vitronectin (DQESCKGRCTEGFNVDKKCQCDELCSYYQSCCTDYTAECKPQVT)	–	–	effect on binding of uPA1–48:uPAR complexes to vitronectin [2]: blocked
CSCC[C@H](NC(=O)[C@H](Cc1ccc(O)cc1)NC(=O)CNC(=O)[C@H](CC(C)C)NC(=O)[C@H](CO)NC(=O)[C@H](CC(C)C)NC(=O)[C@H](Cc1c[nH]cn1)NC(=O)[C@H](Cc1c[nH]cn1)NC(=O)[C@H](Cc1ccc(O)cc1)NC(=O)[C@@H](NC(=O)[C@H](CO)NC(=O)[C@@H](CCC(=O)O)NC(=O)[C@H](C)N)[C@@H](C)O)C(=O)N[C@@H](Cc1ccc(O)cc1)C(=O)N[C@H](C(=O)N[C@@H](CC(C)C)C(=O)N[C@@H](CC(N)=O)C(N)=O)[C@@H](C)O [Analog 47] (H-A[dE]STYHHLSLGYMYTLN-NH2)	35%	61	–
H-AEFFKLGPNGYVYLHSA-NH2 [peptide 9]	–	–	% Inhibition 2.5 uM ([3]; 2500.0): 59%; % Inhibition 5 uM ([3]; 5000.0): 71%; bacteriophage binding to immobilized D23 versus sUPAR [4]: bind equivalently to the D23 fragment and full-length receptor
CSCC[C@H](NC(=O)[C@H](Cc1ccc(O)cc1)NC(=O)CNC(=O)[C@H](CC(C)C)NC(=O)[C@H](CO)NC(=O)[C@H](CC(C)C)NC(=O)[C@H](Cc1c[nH]cn1)NC(=O)[C@H](Cc1c[nH]cn1)NC(=O)[C@H](Cc1ccc(O)cc1)NC(=O)[C@@H](NC(=O)[C@H](CO)NC(=O)[C@H](CCC(=O)O)NC(=O)[C@H](C)N)[C@@H](C)O)C(=O)N[C@@H](Cc1ccc(O)cc1)C(=O)N[C@H](C(=O)N[C@@H](CC(C)C)C(=O)N[C@H](CC(N)=O)C(N)=O)[C@@H](C)O [Analog 61] (H-AESTYHHLSLGYMYTL[dN]-NH2)	32%	55	–
CSCC[C@H](NC(=O)[C@H](Cc1ccc(O)cc1)NC(=O)CNC(=O)[C@@H](CC(C)C)NC(=O)[C@H](CO)NC(=O)[C@H](CC(C)C)NC(=O)[C@H](Cc1c[nH]cn1)NC(=O)[C@H](Cc1c[nH]cn1)NC(=O)[C@H](Cc1ccc(O)cc1)NC(=O)[C@@H](NC(=O)[C@H](CO)NC(=O)[C@H](CCC(=O)O)NC(=O)[C@H](C)N)[C@@H](C)O)C(=O)N[C@@H](Cc1ccc(O)cc1)C(=O)N[C@H](C(=O)N[C@@H](CC(C)C)C(=O)N[C@@H](CC(N)=O)C(N)=O)[C@@H](C)O [Analog 55] (H-AESTYHHLS[dL]GYMYTLN-NH2)	56%	80	–
CSCC[C@H](NC(=O)[C@H](Cc1ccc(O)cc1)NC(=O)CNC(=O)[C@H](CC(C)C)NC(=O)[C@H](CO)NC(=O)[C@H](CC(C)C)NC(=O)[C@H](Cc1c[nH]cn1)NC(=O)[C@H](Cc1c[nH]cn1)NC(=O)[C@H](Cc1cccc2ccccc12)NC(=O)[C@@H](NC(=O)[C@H](CO)NC(=O)[C@H](CCC(=O)O)NC(=O)[C@H](C)N)[C@@H](C)O)C(=O)N[C@@H](Cc1ccc(O)cc1)C(=O)N[C@H](C(=O)N[C@@H](CC(C)C)C(=O)N[C@@H](CC(N)=O)C(N)=O)[C@@H](C)O [Analog 35, AESTXHHLSLGYMYTLN] (H-AEST[1Nal]HHLSLGYMYTLN-NH2)	70%	94	–
